The subject of this assay is TEAD responsive promoter element (8XGTIIC-Luciferase; YAP1-TEAD and TAZ-TEAD activity). In words: TEAD-Luciferase reporter assay. The format is cell-based. The note with it: Homo sapiens; luciferase activity in tumor cell lines with stable integration of the 8XGTIIC-Luciferase construct; 10 doses between 1 and 10000 nM, 48 hrs. From the text: TEAD-Luciferase Reporter Assay
Luciferase-based gene reporter assays were used, employing the TEAD responsive promoter element that are stably integrated to different human tumor cell lines in order to monitor YAP1-TEAD and TAZ-TEAD activity and to study YAP1/TAZ-TEAD activity modulation by small molecule compounds. Luciferase-based gene reporter assays employing the GAPDH promoter element and stably integrated to different human tumor cell lines are used as counter screen control cell lines.
Tumor cell lines with stable integration of the 8XGTIIC-Luciferase construct (Dupont et al., Nature 2011) or the GAPDH-Luciferase control plasmid, are seeded in culture medium in 96-well plates at a density of 8000 cells/well. Following an overnight incubation in a 37° C., 5% CO2 growth chamber, cells are treated with compounds described above at 10 doses ranging between 1 and 10000 nM for 48 hrs. After compound incubation, cells are lysed with Bright-Glo Luciferase Assay System (Promega E2620) and luciferase activity is measured using a luminescent plate reader.
The inhibitory activity of the compounds with respect to luciferase activity is given by the concentration which inhibits 50% of activity of non-treated cells. IC50s are determined with a nonlinear regression model on XLfit software analysis (IDBS, UK).
(In general: Reporter assays use an easily measured gene product as a stand-in for the process of interest.)

pIC50: −log10 of the molar value.

Usually pIC50 stands for −log10 of the IC50, conventionally taken in molar units. Low readings indicate a high IC50, high ones a low IC50.

`C=CC(=O)Nc1ccc2c(ccn2Cc2cccc(C(F)(F)F)c2)c1` [Example 1, N-(1-(3-(trifluoromethyl)benzyl)-1H-indol-5-yl)acrylamide] had a pIC50 of 7.62.

As to `C=CC(=O)N(C)c1ccc2c(ccn2Cc2cccc(C(F)(F)F)c2)c1` [Example 2, N-methyl-N-(1-(3-(trifluoromethyl)benzyl)-1H-indol-5-yl)acrylamide], the pIC50 is 5.96.

`C=CC(=O)Nc1ccc2c(ccn2CCCCC(F)(F)F)c1` [Example 3, N-(1-(5,5,5-trifluoropentyl)-1H-indol-5-yl)acrylamide]: the negative-log IC50 (pIC50) was 7.60.

The molecule `C=CC(=O)Nc1ccc2c(ccn2C(C)c2cccc(C(F)(F)F)c2)c1` (stereo not drawn) [Example 4, N-(1-(1-(3-(trifluoromethyl)phenyl)ethyl)-1H-indol-5-yl)acrylamide] gave a pIC50 of 6.25.

Molecule `C=CC(=O)Nc1ccc2c(ccn2Cc2cccc(S(F)(F)(F)(F)F)c2)c1` [Example 5, N-(1-(3-(pentafluoro-λ6-sulfanyl)benzyl)-1H-indol-5-yl)acrylamide] gave a pIC50 of 7.21.

Regarding `C=CC(=O)Nc1ccc2c(ccn2Cc2ccc(S(F)(F)(F)(F)F)cc2)c1` [Example 6, N-(1-(4-(pentafluoro-λ6-sulfanyl)benzyl)-1H-indol-5-yl)acrylamide], the pIC50 was 5.39.

Regarding `C=CC(=O)Nc1ccc2c(ccn2Cc2ccc(OC(F)(F)F)cc2)c1` [Example 7, N-(1-(4-(trifluoromethoxy)benzyl)-1H-indol-5-yl)acrylamide], the pIC50 was at most 5.00.

Molecule `C=CC(=O)Nc1ccc2c(ccn2Cc2cccc(OC(F)(F)F)c2)c1` [Example 8, N-(1-(3-(trifluoromethoxy)benzyl)-1H-indol-5-yl)acrylamide] had a pIC50 of 6.53.

On to `C=CC(=O)Nc1ccc2c(ccn2Cc2cccc(I)c2)c1` [Example 9, N-(1-(3-iodobenzyl)-1H-indol-5-yl)acrylamide], for which the pIC50 is 6.84.

`C=CC(=O)Nc1ccc2c(ccn2Cc2cc(C(F)(F)F)ccc2F)c1` [Example 10, N-(1-(2-fluoro-5-(trifluoromethyl)benzyl)-1H-indol-5-yl)acrylamide] gave a pIC50 of 5.14.

Consider `C=CC(=O)Nc1ccc2c(c1)c(C)cn2Cc1cccc(C(F)(F)F)c1` [Example 11, N-(3-methyl-1-(3-(trifluoromethyl)benzyl)-1H-indol-5-yl)acrylamide], for which the pIC50 was 7.52.

The molecule `C=CC(=O)Nc1ccc2c(ccn2Cc2cccc(OC)c2)c1` [Example 12, N-(1-(3-methoxybenzyl)-1H-indol-5-yl)acrylamide] gave a pIC50 of 6.62.

As for `C=CC(=O)Nc1ccc2c(c1)cc(C)n2Cc1cccc(C(F)(F)F)c1` [Example 13, N-(2-methyl-1-(3-(trifluoromethyl)benzyl)-1H-indol-5-yl)acrylamide], the pIC50 was 7.20.

For `C=CC(=O)Nc1ccc2c(c1)c(C#N)cn2Cc1cccc(C(F)(F)F)c1` [Example 14, N-(3-cyano-1-(3-(trifluoromethyl)benzyl)-1H-indol-5-yl)acrylamide], the pIC50 was 6.63.

Regarding `C=CC(=O)Nc1ccc2c(ccn2Cc2cccc(C3CC3)c2)c1` [Example 15, N-(1-(3-cyclopropylbenzyl)-1H-indol-5-yl)acrylamide], the pIC50 is 6.30.

As for `C=CC(=O)Nc1ccc2c(c1)c(C)c(C)n2Cc1cccc(C(F)(F)F)c1` [Example 16, N-(2,3-dimethyl-1-(3-(trifluoromethyl)benzyl)-1H-indol-5-yl)acrylamide], the negative logarithm of the IC50 (pIC50) was 7.51.

The molecule `C=CC(=O)Nc1ccc2c(ccn2Cc2cccc(C)c2)c1` [Example 17, N-(1-(3-methylbenzyl)-1H-indol-5-yl)acrylamide] had a pIC50 of 7.27.

`C=CC(=O)Nc1ccc2c(ccn2Cc2ccccc2)c1` [Example 18, N-(1-Benzyl-1H-indol-5-yl)-acrylamide] showed a pIC50 of 6.02.

The molecule `C=CC(=O)Nc1cccc2c1ccn2Cc1cccc(C(F)(F)F)c1` [Example 19, N-(1-(3-(trifluoromethyl)benzyl)-1H-indol-4-yl)acrylamide] gave a pIC50 of 6.71.

As to `CN(C)C/C=C/C(=O)Nc1cccc2c1ccn2Cc1cccc(C(F)(F)F)c1` [Example 20, (E)-4-(dimethylamino)-N-(1-(3-(trifluoromethyl)benzyl)-1H-indol-4-yl)but-2-enamide], the pIC50 was 5.11.

Regarding `C=CC(=O)Nc1ccc2ccn(Cc3cccc(C(F)(F)F)c3)c2c1` [Example 21, N-(1-(3-(trifluoromethyl)benzyl)-1H-indol-6-yl)acrylamide], the pIC50 is 7.46.

`C=CC(=O)Nc1ccc2c(ccn2CC2CCC(F)(F)CC2)c1` [Example 22, N-(1-((4,4-difluorocyclohexyl)methyl)-1H-indol-5-yl)acrylamide]: the pIC50 is 5.85.

With `C=CC(=O)Nc1ccc2c(ccn2CC2CCOCC2)c1` [Example 23, N-(1-((tetrahydro-2H-pyran-4-yl)methyl)-1H-indol-5-yl)acrylamide], the pIC50 was 6.43.

`C=CC(=O)Nc1ccc2c(ccn2CC2CCC(C(F)(F)F)CC2)c1` (stereo not drawn) [Example 24, N-(1-((4-(trifluoromethyl)cyclohexyl)methyl)-1H-indol-5-yl)acrylamide] showed a pIC50 of 6.00.

Consider `C=CC(=O)Nc1ccc2c(ccn2CC2CC3(C2)CC3(F)F)c1` (stereo not drawn) [Example 25, N-(1-((1,1-difluorospiro[2.3]hexan-5-yl)methyl)-1H-indol-5-yl)acrylamide], for which the pIC50 is 6.00.

Consider `C=CC(=O)Nc1ccc2c(ccn2CC2CCC(F)C2)c1` (stereo not drawn) [Example 26, N-(1-((3-fluorocyclopentyl)methyl)-1H-indol-5-yl)acrylamide], for which the pIC50 is 6.45.

Take `C=CC(=O)Nc1ccc2c(ccn2CC2CCCCC2)c1` [Example 27, N-(1-(cyclohexylmethyl)-1H-indol-5-yl)acrylamide]: the pIC50 is at most 5.00.

Take `C=CC(=O)Nc1ccc2c(ccn2CC2CC(C(F)(F)F)C2)c1` (stereo not drawn) [Example 28, N-(1-((3-(trifluoromethyl)cyclobutyl)methyl)-1H-indol-5-yl)acrylamide]: the pIC50 was at most 5.00.

`C=CC(=O)Nc1ccc2c(ccn2CC2CCC(F)(F)C2)c1` (stereo not drawn) [Example 29, N-(1-((3,3-difluorocyclopentyl)methyl)-1H-indol-5-yl)acrylamide] showed a pIC50 of 7.37.

`C=CC(=O)Nc1ccc2c(ccn2Cc2ccc(-c3ccccc3)cc2)c1` [Example 30, N-(1-([1,1′-biphenyl]-4-ylmethyl)-1H-indol-5-yl)acrylamide] showed a pIC50 of at most 5.00.

The molecule `C=CC(=O)Nc1ccc2c(ccn2Cc2ccc(-c3cccc(C(F)(F)F)c3)cc2)c1` [Example 31, N-(1-((3′-(trifluoromethyl)-[1,1′-biphenyl]-4-yl)methyl)-1H-indol-5-yl)acrylamide] had a pIC50 of 7.70.

`C=CC(=O)Nc1ccc2c(ccn2Cc2ccc(-c3ccc(C(F)(F)F)cc3)cc2)c1` [Example 32, N-(1-((4′-(trifluoromethyl)-[1,1′-biphenyl]-4-yl)methyl)-1H-indol-5-yl)acrylamide] gave a pIC50 of 5.11.

Consider `C=CC(=O)Nc1ccc2c(ccn2[C@H]2CC[C@H](C(F)(F)F)CC2)c1` [Example 33, Trans-N-[1-[4-(trifluoromethyl)cyclohexyl]indol-5-yl]acrylamide], for which the pIC50 is 7.39.

`C=CC(=O)Nc1ccc2c(ccn2[C@H]2CC[C@@H](C(F)(F)F)CC2)c1` [Example 34, Cis-N-[1-[4-(trifluoromethyl)cyclohexyl]indol-5-yl]acrylamide] showed a pIC50 of at most 5.00.

For `C=CC(=O)Nc1ccc2c(ccn2CC2CCN(c3ccc(C(F)(F)F)cc3)CC2)c1` [Example 35, N-(1-((1-(4-(trifluoromethyl)phenyl)piperidin-4-yl)methyl)-1H-indol-5-yl)acrylamide], the pIC50 was 5.63.

Turning to `C=CC(=O)Nc1ccc2c(ccn2CCN(C)CC(F)(F)F)c1` [Example 36, N-(1-(2-(methyl(2,2,2-trifluoroethyl)amino)ethyl)-1H-indol-5-yl)acrylamide], the pIC50 was 5.34.

The molecule `C=CC(=O)Nc1ccc2c(ccn2CCOCC(F)(F)F)c1` [Example 37, N-(1-(2-(2,2,2-trifluoroethoxy)ethyl)-1H-indol-5-yl)acrylamide] had a pIC50 of under 5.00.

For `C=CC(=O)Nc1ccc2c(ccn2C2CCN(CC(F)(F)F)CC2)c1` [Example 38, N-(1-(1-(2,2,2-trifluoroethyl)piperidin-4-yl)-1H-indol-5-yl)acrylamide], the pIC50 is 5.82.

`C=CC(=O)Nc1ccc2c(ccn2C2CCC(F)(F)CC2)c1` [Example 39, N-(1-(4,4-difluorocyclohexyl)-1H-indol-5-yl)acrylamide] gave a pIC50 of 7.08.

Consider `C=CC(=O)Nc1ccc2c(ccn2C2CCN(c3ccc(C(F)(F)F)cc3)CC2)c1` [Example 40, N-(1-(1-(4-(trifluoromethyl)phenyl)piperidin-4-yl)-1H-indol-5-yl)acrylamide], for which the pIC50 is at most 5.00.

For the molecule `C=CC(=O)Nc1ccc2c(ccn2CCCN2CCC(F)(F)C2)c1` [Example 41, N-(1-(3-(3,3-difluoropyrrolidin-1-yl)propyl)-1H-indol-5-yl)acrylamide], the pIC50 was at most 5.00.

In turn, `C=CC(=O)Nc1ccc2c(ccn2Cc2ccc([Si](C)(C)C)cc2)c1` [Example 42, N-(1-(4-(trimethylsilyl)benzyl)-1H-indol-5-yl)acrylamide] had a pIC50 of 6.68.

Values taken from patent US12692230B2, “(1 h-indol-5-yl)acrylamide derivatives as inhibitors of TEAD proteins and the hippo-YAP1/TAZ signaling cascade for the treatment of cancer” (Sanofi, priority 2020, dated 2026).
